Some test systems named below: EKVX; HCT-15; HOP-62; HOP-92; Hs-578T; IGROV-1; MDA-N; NCI-H226; NCI-H460; NCI/ADR-RES; OVCAR-4; RXF 393; SF-268; SF-539; SK-MEL-28; SK-MEL-5; SN12C; SW-620; TK-10; U-251.
Holding throughout (test): inhibition of tumour cell growth, NCI panel, 48 h

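All cell lines were grown in 96-well plates and treated with compound for 48 hours. GI50 is the concentration that inhibits growth by half.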 Calls of active or inactive are those of the source. No stated cut-off is given here; in the data, active = GI50 up to about 1.1 µM and inactive = higher.

For `Cc1ccc(-c2cn3c(nc4ccccc43)c(-c3ccccc3)n2)cc1`, the GI50 is > 100 µM (inactive) in the assay on EKVX; greater than 100 µM in the assay with HCT-15; 15.6 µM (inactive) in the assay on HOP-62; 20.7 µM (inactive) in the assay with HOP-92; 15.3 µM (inactive) with Hs-578T; 37.9 µM (inactive) in the assay with IGROV-1. Further, the GI50 is > 100 µM (inactive) in the assay on MDA-N; 58.3 µM (inactive) with NCI-H226; > 94.4 µM (inactive) in the assay on NCI-H460; 47.9 µM (inactive) in the assay on NCI/ADR-RES; > 80.7 µM (inactive) in the assay on OVCAR-4; 25.1 µM (inactive) with RXF 393. The GI50 in the assay with SF-268 is > 45.3 µM (inactive); with SF-539 it was 58.2 µM (inactive); in the assay on SK-MEL-28 it was > 100 µM (inactive); with SK-MEL-5, > 100 µM (inactive); in the assay on SN12C, > 100 µM (inactive); in the assay with SW-620, > 100 µM (inactive). Further, the GI50 with TK-10 is 27.5 µM (inactive); with U-251, 18.8 µM (inactive).

For the compound `Cn1c(CC(O)c2nc3ccccc3n2C)nc2ccccc21` (stereo not given), the GI50 is > 100 µM (inactive) in the assay on EKVX; greater than 16 µM in the assay with HCT-15; > 12.3 µM (inactive) in the assay on HOP-62; > 24.4 µM (inactive) with HOP-92; > 14.5 µM (inactive) in the assay with Hs-578T; > 17.4 µM (inactive) in the assay with IGROV-1. The GI50 is > 100 µM (inactive) in the assay on MDA-N; > 48.3 µM (inactive) with NCI-H226; > 27.4 µM (inactive) with NCI-H460; 29.9 µM (inactive) with NCI/ADR-RES; > 23.3 µM (inactive) in the assay on OVCAR-4; > 24.7 µM (inactive) in the assay on RXF 393. For the same compound, the GI50 in the assay on SF-268 was > 16.2 µM (inactive); in the assay on SF-539, > 39.1 µM (inactive); in the assay on SK-MEL-28 it was > 32.9 µM (inactive); with SK-MEL-5, > 32.8 µM (inactive); with SN12C it was > 36 µM (inactive); in the assay with SW-620 it was > 16 µM (inactive). The GI50 is > 25.1 µM (inactive) in the assay on TK-10 and > 28 µM (inactive) in the assay on U-251.

In the case of `Nc1nc(Cl)nc(NCc2ccccc2)n1`, the GI50 is > 100 µM (inactive) with EKVX; greater than 100 µM in the assay on HCT-15; > 100 µM (inactive) in the assay on HOP-62; > 100 µM (inactive) with HOP-92; > 100 µM (inactive) in the assay with Hs-578T; > 100 µM (inactive) with IGROV-1. Besides, the GI50 in the assay with MDA-N, in the assay on NCI-H226, in the assay with NCI-H460, in the assay with NCI/ADR-RES, in the assay with OVCAR-4 and in the assay on RXF 393 was > 100 µM (inactive) in each case. Moreover, the GI50 in the assay on SF-268, in the assay on SF-539, with SK-MEL-28, in the assay on SK-MEL-5, with SN12C and in the assay with SW-620 was > 100 µM (inactive) each time. Further, the GI50 with TK-10 and in the assay with U-251 was > 100 µM (inactive) throughout.

As to `CC(=O)c1cc2c(Br)cccc2oc1=O`, the GI50 in the assay with EKVX was > 100 µM (inactive); in the assay with HCT-15, greater than 100 µM; in the assay with HOP-62, > 100 µM (inactive); in the assay on HOP-92, > 100 µM (inactive); with Hs-578T, > 100 µM (inactive); in the assay with IGROV-1, > 100 µM (inactive). Also, the GI50 is 52 µM (inactive) with MDA-N; > 100 µM (inactive) in the assay with NCI-H226; > 100 µM (inactive) in the assay with NCI-H460; > 100 µM (inactive) in the assay with NCI/ADR-RES; > 100 µM (inactive) in the assay on OVCAR-4; > 100 µM (inactive) with RXF 393. Besides, the GI50 in the assay on SF-268 is 95.5 µM (inactive); in the assay on SF-539 it was > 100 µM (inactive); in the assay on SK-MEL-28 it was > 100 µM (inactive); in the assay on SK-MEL-5, > 100 µM (inactive); in the assay on SN12C, > 100 µM (inactive); in the assay on SW-620 it was > 100 µM (inactive). Also, the GI50 in the assay with TK-10 is > 100 µM (inactive); in the assay with U-251, 63.4 µM (inactive).

Turning to `O=C1C=CC(=O)c2cc(Sc3ccccc3)c(=O)ccc21`, the GI50 in the assay with EKVX is 18.3 µM (inactive); in the assay with HCT-15, 13.5 µM; in the assay with HOP-62, 28.6 µM (inactive); with HOP-92, 10.4 µM (inactive); with Hs-578T it was 27.4 µM (inactive); with IGROV-1, 18.5 µM (inactive). Also, the GI50 was 16.9 µM (inactive) with MDA-N; 23.1 µM (inactive) with NCI-H226; 22 µM (inactive) in the assay on NCI-H460; 22 µM (inactive) with NCI/ADR-RES; 11 µM (inactive) in the assay on OVCAR-4; 12.3 µM (inactive) with RXF 393. Further, the GI50 with SF-268 was 22 µM (inactive); in the assay on SF-539, 19.8 µM (inactive); in the assay with SK-MEL-28 it was 18 µM (inactive); with SK-MEL-5, 14.2 µM (inactive); in the assay with SN12C, 16.2 µM (inactive); in the assay with SW-620 it was 3.83 µM (inactive). Moreover, the GI50 is 17.1 µM (inactive) with TK-10 and 17 µM (inactive) with U-251.

On to `CC(=O)N[C@@H](Cc1ccc(O)cn1)C(=O)NCc1cccc(F)c1`, for which the GI50 is > 100 µM (inactive) with EKVX; greater than 100 µM in the assay on HCT-15; > 100 µM (inactive) in the assay with HOP-62; 30.9 µM (inactive) in the assay with HOP-92; > 100 µM (inactive) with Hs-578T; > 100 µM (inactive) in the assay with IGROV-1. For the same compound, the GI50 with MDA-N, in the assay with NCI-H226, in the assay with NCI-H460, in the assay on NCI/ADR-RES, with OVCAR-4 and in the assay on RXF 393 was > 100 µM (inactive) throughout. Moreover, the GI50 with SF-268, in the assay with SF-539, in the assay on SK-MEL-28, in the assay with SK-MEL-5, with SN12C and with SW-620 was > 100 µM (inactive) each time. Further, the GI50 in the assay on TK-10 and in the assay on U-251 was > 100 µM (inactive) each time.

Consider `CCOC(=O)/C=C(/C(=O)OCC)n1ccc(=O)n(/C(=C/C(=O)OCC)C(=O)OCC)c1=O`, for which the GI50 with EKVX was 11.4 µM (inactive); in the assay on HCT-15, 2.19 µM; with HOP-62 it was 25.9 µM (inactive); with HOP-92, 2.07 µM (inactive); in the assay with Hs-578T, 20.9 µM (inactive); with IGROV-1, 15.9 µM (inactive). For the same compound, the GI50 in the assay on MDA-N is 13.5 µM (inactive); in the assay on NCI-H226, 8.07 µM (inactive); in the assay on NCI-H460 it was 17.3 µM (inactive); in the assay with NCI/ADR-RES it was 22.9 µM (inactive); in the assay with OVCAR-4, 9.93 µM (inactive); in the assay on RXF 393 it was 3.68 µM (inactive). Moreover, the GI50 with SF-268 is 18.6 µM (inactive); in the assay on SF-539 it was 18.1 µM (inactive); in the assay with SK-MEL-28, 13.1 µM (inactive); in the assay on SK-MEL-5, 14.5 µM (inactive); in the assay on SN12C it was 4.43 µM (inactive); with SW-620, 2.04 µM (inactive). The GI50 in the assay with TK-10 is 7.08 µM (inactive); with U-251 it was 14.6 µM (inactive).

Regarding `O=C(CN(c1ccc(S(=O)(=O)O)cc1)c1ccc(S(=O)(=O)O)cc1)Nn1cnc2ccc(S(=O)(=O)N(c3ccc(S(=O)(=O)O)cc3)c3ccc(S(=O)(=O)O)cc3)cc2c1=O`, the GI50 in the assay with EKVX is > 100 µM (inactive); in the assay on HCT-15, greater than 100 µM; in the assay with HOP-62, > 100 µM (inactive); in the assay on HOP-92 it was > 100 µM (inactive); with Hs-578T, > 100 µM (inactive); in the assay on IGROV-1, 61.2 µM (inactive). The GI50 in the assay with MDA-N, with NCI-H226, in the assay with NCI-H460, with NCI/ADR-RES, in the assay on OVCAR-4 and with RXF 393 was > 100 µM (inactive) each time. Moreover, the GI50 in the assay with SF-268, in the assay on SF-539, in the assay with SK-MEL-28, in the assay with SK-MEL-5, with SN12C and in the assay with SW-620 was > 100 µM (inactive) in each case. Besides, the GI50 in the assay with TK-10 and with U-251 was > 100 µM (inactive) each time.

In the case of `c1ccc(C2=NN=C3C(c4ccccc4)=Nc4ccccc4N3C2)cc1`, the GI50 was 23.6 µM (inactive) in the assay with EKVX; 11.6 µM with HCT-15; 27 µM (inactive) in the assay on HOP-62; 29.3 µM (inactive) in the assay on HOP-92; 26.6 µM (inactive) with Hs-578T; 26.5 µM (inactive) in the assay on IGROV-1. Moreover, the GI50 with MDA-N is 31.3 µM (inactive); with NCI-H226, 14.9 µM (inactive); with NCI-H460 it was 5.07 µM (inactive); with NCI/ADR-RES, 14.7 µM (inactive); in the assay on OVCAR-4 it was 4.58 µM (inactive); with RXF 393, 10.1 µM (inactive). Moreover, the GI50 in the assay on SF-268 is 9.48 µM (inactive); in the assay on SF-539, 39.5 µM (inactive); in the assay on SK-MEL-28, 34.7 µM (inactive); in the assay on SK-MEL-5, 14.1 µM (inactive); in the assay on SN12C, 29.9 µM (inactive); in the assay with SW-620, 10.5 µM (inactive). Moreover, the GI50 with TK-10 is 5.08 µM (inactive); in the assay on U-251 it was 14.3 µM (inactive).

Turning to `CC(=O)OCC1OC(n2c3c(c(-c4ccco4)c(C#N)c2=S)CCCC3)C(OC(C)=O)C(OC(C)=O)C1OC(C)=O` (stereo not given), the GI50 in the assay with EKVX was 16.6 µM (inactive); with HCT-15, greater than 31.6 µM; with HOP-62, 13.3 µM (inactive); in the assay with HOP-92 it was 7.36 µM (inactive); with Hs-578T, 29.4 µM (inactive); with IGROV-1, 21.9 µM (inactive). For the same compound, the GI50 in the assay on MDA-N is > 31.6 µM (inactive); in the assay with NCI-H226, 21.9 µM (inactive); in the assay on NCI-H460 it was 22.9 µM (inactive); with NCI/ADR-RES, 17.1 µM (inactive); in the assay on OVCAR-4, 9.16 µM (inactive); in the assay with RXF 393, > 10 µM (inactive). The GI50 in the assay on SF-268 was 13.5 µM (inactive); with SF-539, 17.6 µM (inactive); in the assay with SK-MEL-28, > 31.6 µM (inactive); with SK-MEL-5, 16.3 µM (inactive); in the assay with SN12C, > 31.6 µM (inactive); in the assay with SW-620 it was > 100 µM (inactive). The GI50 is 15.7 µM (inactive) in the assay on TK-10 and > 10 µM (inactive) in the assay with U-251.

Source of the values: ChEMBL document CHEMBL1201862, “PubChem BioAssay data set” (2004).
